# Results reported in patent US20150290200A1, “INTRACELLULAR KINASE INHIBITORS” (Pharmacyclics Inc., priority 2006, published 2015).
# pIC50: −log10 of the molar value. Where two headings read alike, the source gives them in different places.
# Experiments:
# ITK kinase domain = target: T1, ITK kinase domain (Homo sapiens, UniProt Q08881); assay: In vitro kinase assay (HITHUNTER enzyme fragment complementation), ITK; assay type: biochemical
# T1 construct: N-terminally His-tagged ITK kinase domain (amino acids 352-617); His (N); made in house
# T1 sequence (Q08881 352-617): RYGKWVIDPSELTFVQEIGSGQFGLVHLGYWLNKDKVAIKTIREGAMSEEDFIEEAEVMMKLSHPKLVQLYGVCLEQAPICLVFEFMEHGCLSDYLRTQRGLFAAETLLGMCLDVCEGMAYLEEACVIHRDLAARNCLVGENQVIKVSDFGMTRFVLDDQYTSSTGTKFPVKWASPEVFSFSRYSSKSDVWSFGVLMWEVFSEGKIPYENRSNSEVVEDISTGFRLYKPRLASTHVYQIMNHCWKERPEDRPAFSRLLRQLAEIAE
# Protocol: Compounds were screened using the HITHUNTER™ enzyme fragment complementation method (Discoverx). Briefly, a recombinantly produced, N-terminally His-tagged ITK kinase domain (amino acids 352-617) was incubated with various concentrations of individual compounds. ATP and substrate were added, and the kinase reaction was allowed to proceed for 2-16 hours. Commercially available detection reagents were added and allowed to react for 2-4 hours. The reaction was evaluated by luminescence. Initial results were confirmed using full-length recombinant ITK protein.
# In order to confirm the mechanism by which compounds depicted herein interact with the kinase domain of Tec and EGFR kinases, we created a point mutant of the ITK kinase domain, whereby the key amino acid, namely C442 was mutated to alanine. The protein was expressed in a commercial baculovirus expression system using the manufacturer's general protocol (Invitrogen, pBlueBac). Protein was expressed and purified using standard techniques. […] While the activity of WT-ITK was inhibited by compounds depicted in this application, the same compounds had no activity towards the C442A mutant kinase domain.
# BTK kinase domain = target: T2, BTK kinase domain (Homo sapiens, UniProt Q06187); assay: In vitro kinase assay (HITHUNTER), BTK; assay type: biochemical
# T2 construct: The kinase domains of BTK, LCK and ERK were expressed as recombinant purified proteins; made in house
# Excerpt: Similarly, commercially available reagents such as HITHUNTER™ were used to evaluate the effect of compounds on the activity of additional kinases. The kinase domains of BTK, LCK and ERK were expressed as recombinant purified proteins were used for these studies.
# [1] = Table 3, Compound, read-out: IC50 ITK
# T2 sequence (Q06187 402-655 limits assumed): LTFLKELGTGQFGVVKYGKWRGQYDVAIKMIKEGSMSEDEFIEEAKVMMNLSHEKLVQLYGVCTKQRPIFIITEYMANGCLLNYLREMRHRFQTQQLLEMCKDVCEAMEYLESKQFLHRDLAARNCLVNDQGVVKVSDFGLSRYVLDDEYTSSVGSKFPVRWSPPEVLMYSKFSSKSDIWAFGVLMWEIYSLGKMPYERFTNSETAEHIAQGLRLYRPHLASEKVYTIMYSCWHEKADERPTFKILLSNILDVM
smiles,measurement,setting,value
CC(C)CN(C)CCC(=O)c1ccc2ccccc2c1,pIC50,"ITK kinase domain; Table 1, ITK, read-out: IC50",7.87
O=C(CCN1CCN(c2ccccc2)CC1)c1ccc2ccccc2c1,pIC50,"ITK kinase domain; Table 1, ITK, read-out: IC50",8.37
CC(C)C1CCN(CCC(=O)c2ccc3ccccc3c2)CC1,pIC50,"ITK kinase domain; Table 1, ITK, read-out: IC50",7.88
CC(C)C1CCN(CCC(=O)c2ccc3ccccc3c2)C1 (stereo not shown),pIC50,"ITK kinase domain; Table 1, ITK, read-out: IC50",8.16
COc1ccc(C(=O)CCN2CCOCC2)cc1[N+](=O)[O-],pIC50,"ITK kinase domain; Table 2, read-out: IC50 ITK",7.70
CN(C)C1CCN(CCC(=O)C2=CC3NC(=O)COC3C=C2)C1 (stereo not shown),pIC50,"BTK kinase domain; Table 3, Compound",5.72
same,pIC50,ITK kinase domain; [1],7.14
CN(CCC(=O)c1ccc2c(c1)NC(=O)CO2)Cc1ccc(F)cc1,pIC50,"BTK kinase domain; Table 3, Compound",6.52
same,pIC50,ITK kinase domain; [1],8.00
CN(C)CCN1CCN(CCC(=O)c2ccc3c(c2)NC(=O)CO3)CC1,pIC50,"BTK kinase domain; Table 3, Compound",6.32
same,pIC50,ITK kinase domain; [1],7.74
CN(C)C1CCN(CCC(=O)c2ccc3c(c2)NC(=O)CO3)CC1,pIC50,"BTK kinase domain; Table 3, Compound",6.82
same,pIC50,ITK kinase domain; [1],7.89
CC(C)N(CCC(=O)c1ccc2c(c1)NC(=O)CO2)C(C)C,pIC50,"BTK kinase domain; Table 3, Compound",6.26
same,pIC50,ITK kinase domain; [1],7.64
CN(CCC(=O)c1ccc2ccccc2c1)Cc1ccc(C(F)(F)F)cc1,pIC50,"ITK kinase domain; Table 4, read-out: IC50 ITK",7.25
O=C(CCN1CCN(Cc2ccccc2)CC1)c1ccc2ccccc2c1,pIC50,"ITK kinase domain; Table 4, read-out: IC50 ITK",7.52
O=C(CCN1CCC(c2ccccc2)C1)c1ccc2ccccc2c1 (stereo not shown),pIC50,"ITK kinase domain; Table 4, read-out: IC50 ITK",7.64
O=C(CCN1CCOCC1)c1ccc2ccccc2n1,pIC50,BTK kinase domain; Table 4,5.30
same,pIC50,"ITK kinase domain; Table 4, read-out: IC50 ITK",7.32
O=C(CCN1CCOCC1)c1cnc2ccccc2c1,pIC50,BTK kinase domain; Table 4,7.00
same,pIC50,"ITK kinase domain; Table 4, read-out: IC50 ITK",6.72
O=C(CCN1CCOCC1)c1c[nH]c2ccccc12,pIC50,BTK kinase domain; Table 4,5.09
same,pIC50,"ITK kinase domain; Table 4, read-out: IC50 ITK",6.75
O=C(CCN1CCOCC1)c1n[nH]c2ccccc12,pIC50,BTK kinase domain; Table 4,6.53
same,pIC50,"ITK kinase domain; Table 4, read-out: IC50 ITK",7.31
O=C(CCN1CCOCC1)c1csc2ccccc12,pIC50,BTK kinase domain; Table 4,6.21
same,pIC50,"ITK kinase domain; Table 4, read-out: IC50 ITK",6.87
O=C(CCN1CCOCC1)c1ccc2sccc2c1,pIC50,BTK kinase domain; Table 4,6.48
same,pIC50,"ITK kinase domain; Table 4, read-out: IC50 ITK",7.22
O=C(CCN1CCOCC1)c1cc2ccccc2o1,IC50 BTK,BTK kinase domain; Table 4,no IC50
same,pIC50,"ITK kinase domain; Table 4, read-out: IC50 ITK",4.25
O=C(CCN1CCOCC1)c1cc2ccccc2s1,pIC50,BTK kinase domain; Table 4,7.77
same,pIC50,"ITK kinase domain; Table 4, read-out: IC50 ITK",8.00
O=C(CCN1CCOCC1)c1ccc2cc(O)ccc2c1,pIC50,BTK kinase domain; Table 4,8.22
same,pIC50,"ITK kinase domain; Table 4, read-out: IC50 ITK",7.52
O=C(O)c1ccc2cc(C(=O)CCN3CCOCC3)ccc2c1,pIC50,BTK kinase domain; Table 4,5.63
same,pIC50,"ITK kinase domain; Table 4, read-out: IC50 ITK",5.48
O=CNc1ccc2cc(C(=O)CCN3CCOCC3)ccc2c1,pIC50,BTK kinase domain; Table 4,8.70
same,pIC50,"ITK kinase domain; Table 4, read-out: IC50 ITK",7.38
O=C(CCN1CCCCC1)c1ccc2ccccc2c1,pIC50,"ITK kinase domain; Table 5, read-out: IC50 ITK",6.27
CC1CCCN1CCC(=O)c1ccc2ccccc2c1 (stereo not shown),pIC50,"ITK kinase domain; Table 5, read-out: IC50 ITK",6.07
CN(C)CCC(=O)c1ccc2ccccc2c1,pIC50,"ITK kinase domain; Table 5, read-out: IC50 ITK",6.79
CC1CCN(CCC(=O)c2ccc3ccccc3c2)CC1,pIC50,"ITK kinase domain; Table 5, read-out: IC50 ITK",6.51
O=C(CCN1CCC(c2ccccn2)C1)c1ccc2ccccc2c1 (stereo not shown),pIC50,"ITK kinase domain; Table 5, read-out: IC50 ITK",7.44
CC(C)N(C)CCC(=O)c1ccc2ccccc2c1,pIC50,"ITK kinase domain; Table 5, read-out: IC50 ITK",7.79
O=C(CCN1CCNCC1)c1ccc2ccccc2c1,pIC50,BTK kinase domain; Table 5,6.39
same,pIC50,"ITK kinase domain; Table 5, read-out: IC50 ITK",6.93
NC(=O)N1CCN(CCC(=O)c2ccc3ccccc3c2)CC1,pIC50,BTK kinase domain; Table 5,6.82
same,pIC50,"ITK kinase domain; Table 5, read-out: IC50 ITK",7.64
CN(C)C(=O)N1CCN(CCC(=O)c2ccc3ccccc3c2)CC1,pIC50,BTK kinase domain; Table 5,6.34
same,pIC50,"ITK kinase domain; Table 5, read-out: IC50 ITK",7.25
O=C(CCN1CCN(C(=O)N2CCOCC2)CC1)c1ccc2ccccc2c1,pIC50,BTK kinase domain; Table 5,6.62
same,pIC50,"ITK kinase domain; Table 5, read-out: IC50 ITK",7.22
CC(=O)N1CCN(CCC(=O)c2ccc3ccccc3c2)CC1,pIC50,BTK kinase domain; Table 5,7.05
same,pIC50,"ITK kinase domain; Table 5, read-out: IC50 ITK",7.18
CC(C)(C)C(=O)N1CCN(CCC(=O)c2ccc3ccccc3c2)CC1,pIC50,BTK kinase domain; Table 5,6.44
same,pIC50,"ITK kinase domain; Table 5, read-out: IC50 ITK",7.19
O=C(CCN1CCN(C(=O)c2ccncc2)CC1)c1ccc2ccccc2c1,pIC50,BTK kinase domain; Table 5,7.74
same,pIC50,"ITK kinase domain; Table 5, read-out: IC50 ITK",7.27
O=C(CCN1CCCCNC1)c1ccc2ccccc2c1,pIC50,BTK kinase domain; Table 5,7.29
same,pIC50,"ITK kinase domain; Table 5, read-out: IC50 ITK",7.06
O=C(CCN1CCSCC1)c1ccc2ccccc2c1,pIC50,BTK kinase domain; Table 5,7.15
same,pIC50,"ITK kinase domain; Table 5, read-out: IC50 ITK",7.51
O=C(CCN1CCS(=O)(=O)CC1)c1ccc2ccccc2c1,pIC50,BTK kinase domain; Table 5,6.93
same,pIC50,"ITK kinase domain; Table 5, read-out: IC50 ITK",7.18
O=C(CCN1CCC[C@@H]1CO)c1ccc2ccccc2c1,pIC50,BTK kinase domain; Table 5,6.91
same,pIC50,"ITK kinase domain; Table 5, read-out: IC50 ITK",7.31
NCC1CCN(CCC(=O)c2ccc3ccccc3c2)CC1,pIC50,BTK kinase domain; Table 5,7.08
same,pIC50,"ITK kinase domain; Table 5, read-out: IC50 ITK",7.07
